According to US10526316B2, “Quinoxaline and pyridopyrazine derivatives as PI3Kβ inhibitors” (Janssen Pharmaceutica NV, priority 2015, dated 2020):
Like-named read-outs stand apart in the source and are kept apart here.

Assays:
[1] = target: T1, PI3Kβ (Homo sapiens, UniProt P42338); experiment: Enzyme binding assay (KINOMEscan, DiscoveRx); details: PIK3Cβ_h, read-out: Kd PIK3Cβ_h
T1 construct: purchased DiscoveRx Corporation, San Diego (contract service, KINOMEscan)
In short: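 Using the KINOMEscan format, the enzyme binding affinity of each compound was determined. Each value is the inhibitor binding constant, Kd (nM).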

[2] = target: T2, PI3Kδ (Homo sapiens, UniProt O00329); experiment: Enzyme binding assay (KINOMEscan, DiscoveRx); details: PIK3Cδ_h
T2 construct: purchased DiscoveRx Corporation, San Diego (contract service, KINOMEscan)
T2 sequence (O00329 1-1044): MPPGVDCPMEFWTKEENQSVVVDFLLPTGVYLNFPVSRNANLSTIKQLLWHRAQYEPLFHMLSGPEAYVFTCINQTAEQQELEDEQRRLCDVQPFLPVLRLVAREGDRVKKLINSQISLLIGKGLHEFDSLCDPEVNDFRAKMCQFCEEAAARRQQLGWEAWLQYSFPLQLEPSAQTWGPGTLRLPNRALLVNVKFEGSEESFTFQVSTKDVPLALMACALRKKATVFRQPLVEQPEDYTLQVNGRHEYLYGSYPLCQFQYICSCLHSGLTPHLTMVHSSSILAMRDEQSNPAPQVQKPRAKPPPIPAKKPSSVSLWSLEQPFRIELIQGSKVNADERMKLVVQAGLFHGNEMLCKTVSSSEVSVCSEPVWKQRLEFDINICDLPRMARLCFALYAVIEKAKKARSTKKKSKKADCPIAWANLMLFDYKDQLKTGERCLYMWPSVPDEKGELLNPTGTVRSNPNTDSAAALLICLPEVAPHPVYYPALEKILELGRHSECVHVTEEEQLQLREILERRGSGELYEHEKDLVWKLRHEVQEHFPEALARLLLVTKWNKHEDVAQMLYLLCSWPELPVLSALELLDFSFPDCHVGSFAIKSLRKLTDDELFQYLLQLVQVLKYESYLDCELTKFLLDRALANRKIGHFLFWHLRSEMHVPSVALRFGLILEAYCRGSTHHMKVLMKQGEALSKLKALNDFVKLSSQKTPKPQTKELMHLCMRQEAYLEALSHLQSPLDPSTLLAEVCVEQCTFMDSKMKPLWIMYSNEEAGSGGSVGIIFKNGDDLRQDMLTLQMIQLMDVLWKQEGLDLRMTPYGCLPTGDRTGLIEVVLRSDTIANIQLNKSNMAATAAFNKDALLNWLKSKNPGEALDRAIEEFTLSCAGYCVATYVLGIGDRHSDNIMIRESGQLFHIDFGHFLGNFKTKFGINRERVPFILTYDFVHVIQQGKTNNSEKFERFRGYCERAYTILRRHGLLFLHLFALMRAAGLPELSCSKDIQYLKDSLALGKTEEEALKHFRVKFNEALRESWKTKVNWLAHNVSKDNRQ
In short: (§1)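 Uses KINOMEscan technology to determine binding affinity toward the kinase enzymes.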

[3] = target: T3, kinase enzymes (Homo sapiens, UniProt P42336); experiment: Enzyme binding assay (KINOMEscan, DiscoveRx), further kinases of Table A; details: PIK3Cα_h
T3 construct: purchased DiscoveRx Corporation, San Diego (contract service, KINOMEscan)
T3 sequence (P42336 whole entry): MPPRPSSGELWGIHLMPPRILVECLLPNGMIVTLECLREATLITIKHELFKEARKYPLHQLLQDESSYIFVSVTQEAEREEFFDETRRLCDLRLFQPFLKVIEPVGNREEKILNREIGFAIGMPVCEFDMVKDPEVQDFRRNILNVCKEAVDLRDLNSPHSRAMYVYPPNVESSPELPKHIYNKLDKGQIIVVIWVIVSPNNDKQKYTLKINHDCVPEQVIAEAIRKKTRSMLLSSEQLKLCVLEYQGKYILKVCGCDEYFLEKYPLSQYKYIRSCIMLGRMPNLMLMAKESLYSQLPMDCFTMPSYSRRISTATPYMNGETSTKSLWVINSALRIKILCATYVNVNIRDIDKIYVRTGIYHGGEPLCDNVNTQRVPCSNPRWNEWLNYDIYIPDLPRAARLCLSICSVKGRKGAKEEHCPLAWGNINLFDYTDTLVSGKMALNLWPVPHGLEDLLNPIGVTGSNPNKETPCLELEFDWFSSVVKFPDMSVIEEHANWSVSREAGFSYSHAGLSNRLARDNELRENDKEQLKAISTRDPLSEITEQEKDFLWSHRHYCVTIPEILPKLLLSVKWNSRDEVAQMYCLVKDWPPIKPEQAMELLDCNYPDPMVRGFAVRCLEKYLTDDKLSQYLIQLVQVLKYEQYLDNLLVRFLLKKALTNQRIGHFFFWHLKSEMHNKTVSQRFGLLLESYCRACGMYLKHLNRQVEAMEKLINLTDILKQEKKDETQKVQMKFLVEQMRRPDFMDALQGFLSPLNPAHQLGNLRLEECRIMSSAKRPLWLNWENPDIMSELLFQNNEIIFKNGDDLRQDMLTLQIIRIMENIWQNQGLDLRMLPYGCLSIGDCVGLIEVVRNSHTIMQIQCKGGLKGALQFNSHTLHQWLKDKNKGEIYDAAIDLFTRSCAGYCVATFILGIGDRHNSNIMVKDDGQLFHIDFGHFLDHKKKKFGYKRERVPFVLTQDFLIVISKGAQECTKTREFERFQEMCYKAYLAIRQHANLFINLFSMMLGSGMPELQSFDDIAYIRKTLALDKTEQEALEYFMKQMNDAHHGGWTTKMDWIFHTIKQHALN
In short: as §1

[4] = target: T4, kinase enzymes (Homo sapiens, UniProt P42345); experiment: as above; details: MTOR_h
T4 construct: purchased DiscoveRx Corporation, San Diego (contract service, KINOMEscan)
In short: as §1

[5] = target: T5, kinase enzymes (Homo sapiens, UniProt P48736); experiment: as above; details: PIK3Cγ_h
T5 construct: purchased DiscoveRx Corporation, San Diego (contract service, KINOMEscan)
T5 sequence (P48736 whole entry): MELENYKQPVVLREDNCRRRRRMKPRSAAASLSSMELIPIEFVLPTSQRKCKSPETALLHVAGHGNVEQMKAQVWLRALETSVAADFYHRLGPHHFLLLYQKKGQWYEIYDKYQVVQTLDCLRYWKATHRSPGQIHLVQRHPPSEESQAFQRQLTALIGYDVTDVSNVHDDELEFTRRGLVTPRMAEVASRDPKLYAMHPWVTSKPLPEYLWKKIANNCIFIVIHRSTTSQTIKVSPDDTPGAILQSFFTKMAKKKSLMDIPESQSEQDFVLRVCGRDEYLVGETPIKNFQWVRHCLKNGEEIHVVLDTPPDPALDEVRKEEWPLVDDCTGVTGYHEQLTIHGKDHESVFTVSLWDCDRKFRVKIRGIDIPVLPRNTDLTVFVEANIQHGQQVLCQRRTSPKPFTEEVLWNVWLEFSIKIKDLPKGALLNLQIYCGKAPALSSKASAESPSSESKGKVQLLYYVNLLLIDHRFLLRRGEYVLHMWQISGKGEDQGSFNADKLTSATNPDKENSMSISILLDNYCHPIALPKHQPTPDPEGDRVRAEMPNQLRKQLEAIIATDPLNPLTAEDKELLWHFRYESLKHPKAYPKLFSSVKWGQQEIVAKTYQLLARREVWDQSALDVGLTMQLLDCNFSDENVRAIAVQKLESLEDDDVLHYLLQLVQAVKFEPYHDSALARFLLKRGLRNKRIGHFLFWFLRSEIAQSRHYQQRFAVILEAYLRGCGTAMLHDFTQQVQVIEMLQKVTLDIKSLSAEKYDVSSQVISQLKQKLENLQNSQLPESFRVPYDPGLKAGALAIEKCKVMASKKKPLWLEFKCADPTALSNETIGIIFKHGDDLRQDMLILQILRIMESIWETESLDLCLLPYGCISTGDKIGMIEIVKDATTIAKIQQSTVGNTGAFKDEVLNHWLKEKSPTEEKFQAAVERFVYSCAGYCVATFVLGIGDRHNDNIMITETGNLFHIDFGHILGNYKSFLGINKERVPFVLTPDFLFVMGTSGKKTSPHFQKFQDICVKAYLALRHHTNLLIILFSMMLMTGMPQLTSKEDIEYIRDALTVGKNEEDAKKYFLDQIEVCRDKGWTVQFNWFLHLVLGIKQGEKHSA
In short: as §1

[6] = system: Akt phosphorylated at Ser473 in PC-3 cells; experiment: Cellular assay: phosphorylation of Akt at Ser473 in PC-3 cells (MSD ELISA); type: cell-based; details: PC-3 cells, 60 min compound incubation, MSD ELISA, read-out: IC50 pAkt_S473
In short: (§2)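 After lysis of treated cells (60 min, 37° C, 0.3% DMSO), phospho-Akt levels were measured by MSD electrochemiluminescence ELISA. Potency was derived from concentration-response curves fitted over five concentrations.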

[7] = system: Akt phosphorylated at Thr308 in PC-3 cells; experiment: Cellular assay: phosphorylation of Akt at Thr308 in PC-3 cells (MSD ELISA); type: cell-based; details: PC-3 cells, 60 min compound incubation, MSD ELISA, read-out: IC50 pAkt_Thr308
In short: as §2

T1 sequence (P42338 whole entry): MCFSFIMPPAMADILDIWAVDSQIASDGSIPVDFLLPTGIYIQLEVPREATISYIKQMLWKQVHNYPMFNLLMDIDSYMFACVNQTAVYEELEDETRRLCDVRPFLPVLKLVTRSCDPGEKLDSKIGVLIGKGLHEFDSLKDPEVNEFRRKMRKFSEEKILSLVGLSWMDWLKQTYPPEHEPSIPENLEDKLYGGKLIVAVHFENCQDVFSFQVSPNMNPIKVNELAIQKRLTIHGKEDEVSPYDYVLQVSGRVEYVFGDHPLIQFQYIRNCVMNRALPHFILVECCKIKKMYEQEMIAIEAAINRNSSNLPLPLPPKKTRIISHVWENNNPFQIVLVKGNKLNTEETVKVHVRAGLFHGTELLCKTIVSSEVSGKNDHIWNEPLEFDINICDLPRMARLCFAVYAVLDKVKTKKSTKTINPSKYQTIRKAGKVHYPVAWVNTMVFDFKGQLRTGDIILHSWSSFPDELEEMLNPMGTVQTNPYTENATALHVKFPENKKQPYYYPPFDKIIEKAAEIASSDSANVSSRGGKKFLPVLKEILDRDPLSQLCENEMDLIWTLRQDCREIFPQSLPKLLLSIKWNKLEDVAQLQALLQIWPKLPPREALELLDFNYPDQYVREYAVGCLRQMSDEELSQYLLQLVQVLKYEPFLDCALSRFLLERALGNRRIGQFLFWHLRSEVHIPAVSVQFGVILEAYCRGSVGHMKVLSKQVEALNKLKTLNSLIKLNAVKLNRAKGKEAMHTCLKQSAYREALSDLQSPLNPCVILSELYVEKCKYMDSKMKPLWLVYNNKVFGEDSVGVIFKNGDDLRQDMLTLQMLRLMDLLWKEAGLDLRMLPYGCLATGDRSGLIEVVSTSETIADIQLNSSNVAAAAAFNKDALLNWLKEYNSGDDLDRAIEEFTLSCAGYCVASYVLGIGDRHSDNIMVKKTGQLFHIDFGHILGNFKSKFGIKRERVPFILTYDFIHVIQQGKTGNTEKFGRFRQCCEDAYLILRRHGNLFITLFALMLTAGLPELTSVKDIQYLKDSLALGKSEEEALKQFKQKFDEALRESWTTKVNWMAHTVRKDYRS

SMILES	Kd [1] [nM]	Kd [2] [nM]	Kd [3] [nM]	Kd [4] [nM]	Kd [5] [nM]	IC50 [6] [nM]	IC50 [7] [nM]	melting point [°C]	IC50 ([6]; Homo sapiens, PC-3, 1 h) [nM]	IC50 ([7]; Homo sapiens, PC-3, 1 h) [nM]
Fc1cc(F)cc(N2CCCC2c2cncc3ncc(N4CCOCC4)nc23)c1 (single isomer, unassigned) [Compound 24]	1	245	302	18600	372	36	30	100	–	–
Fc1cc(F)cc(N2CCCC2c2cncc3ncc(N4CCOCC4)nc23)c1 (single isomer, unassigned) [Compound 25]	37	4680	12300	> 30200	12900	> 513	> 513	98	–	–
COC(=O)c1cc(C2CCCN2c2cc(F)cc(F)c2)c2nc(N3CCOCC3)cnc2c1 (single isomer, unassigned) [Compound 31]	> 32000	> 32000	> 32000	> 32000	> 32000	> 513	> 513	213	–	–
O=C(c1cc(C2CCCN2c2cc(F)cc(F)c2)c2nc(N3CCOCC3)cnc2c1)N1CCC1 (single isomer, unassigned) [Compound 33]	1	47	58	> 30200	389	3	4	280	–	–
O=C(c1cc(C2CCCN2c2cc(F)cc(F)c2)c2nc(N3CCOCC3)cnc2c1)N1CCC1 (single isomer, unassigned) [Compound 37]	20	2880	6170	> 30200	> 30200	200	126	276	–	–
O=C(c1cc(C2CCCN2c2cc(F)cc(F)c2)c2nc(N3CCOCC3)cnc2c1)N1CCS(=O)(=O)CC1 (single isomer, unassigned) [Compound 38]	0.4	6	3	> 30200	933	~0.8	1	146	–	–
CNC(=O)c1cc(C2CCCN2c2cc(F)cc(F)c2)c2nc(N3CCOCC3)cnc2c1 (single isomer, unassigned) [Compound 40]	1	35	56	17400	309	–	–	80	7	4
O=C(c1cc(C2CCCN2c2cc(F)cc(F)c2)c2nc(N3CCOCC3)cnc2c1)N1CCS(=O)(=O)CC1 (single isomer, unassigned) [Compound 43]	316	7240	4680	> 30200	1100	> 513	331	80	–	–
O=C(c1cc(C2CCCN2c2cc(F)cc(F)c2)c2nc(N3CCOCC3)cnc2c1)N1CC2(COC2)C1 (single isomer, unassigned) [Compound 47]	0.2	32	41	14800	759	–	–	80	3	4
CN1CCN(C(=O)c2cc(C3CCCN3c3cc(F)cc(F)c3)c3nc(N4CCOCC4)cnc3c2)CC1 (single isomer, unassigned) [Compound 57]	0.4	31	49	25100	525	~5	4	80	–	–
C[C@H](CO)NC(=O)c1cc(C2CCCN2c2cc(F)cc(F)c2)c2nc(N3CCOCC3)cnc2c1 (single isomer, unassigned) [Compound 70]	2	148	339	19100	1100	–	–	80	~45	23
OC[C@@H]1CCCN1Cc1cc(C2CCCN2c2cc(F)cc(F)c2)c2nc(N3CCOCC3)cnc2c1 (single isomer, unassigned) [Compound 77]	0.3	100	363	> 30200	646	–	–	80	~76	~51
CC(Nc1cc(F)cc(F)c1)c1cc(C(=O)O)cc2ncc(N3CCOCC3)nc12 (single isomer, unassigned) [Compound 83b]	1	129	170	1290	562	–	–	180	> 513	> 513
CC(Nc1cc(F)cc(F)c1)c1cc(C(=O)O)cc2ncc(N3CCOCC3)nc12 (single isomer, unassigned) [Compound 83c]	158	4900	3090	3090	2690	> 513	> 513	157	–	–
CC(Oc1cccc(F)c1)c1cc(C(=O)N2CCC[C@H]2CO)cc2ncc(N3CCOCC3)nc12 (single isomer, unassigned) [Compound 86]	15	537	3470	> 30200	21400	–	–	76	513	263
CC(Oc1cccc(F)c1)c1cc(C(=O)N2CCC[C@H]2CO)cc2ncc(N3CCOCC3)nc12 (single isomer, unassigned) [Compound 87]	1380	9550	22900	> 30200	> 30200	> 513	> 513	74	–	–
